Key:
[1] = Pharmacokinetics of ghrelin preparations intravenously or subcutaneously administered to cynomolgus monkeys (plasma ghrelin by ELISA); conditions: cynomolgus monkey, in vivo, sc, read-out: BA of subcutaneously injected ghrelin
Procedure: Preparations No. 5 and No. 33 were subcutaneously administered to separate groups of cynomolgus monkeys and the plasma ghrelin levels were measured. Furthermore, Preparation No. 1 was intravenously administered to another group of cynomolgus monkeys. The plasma ghrelin levels were measured.
Each group consisted of three male monkeys (imported from China) aged 4 to 6 years. Preparations No. 5 and No. 33 were subcutaneously injected in the dorsal skin at a dose of 0.2 mL/body using a syringe and a 26 G needle (each available from Terumo Co., Ltd.).
Using a syringe and a 26 G needle (each available from Terumo Co., Ltd.), Preparation No. 1 was intravenously injected in the forearm vena cephalica at a dose of 2 mL/kg.
In each case, blood samples were collected from the forearm vena cephalica before administration and 5, 10, 15, 30, 40, 60, 90, and 120 minutes after administration. […]
The plasma samples were then analyzed for the ghrelin levels by Enzyme-Linked Immunosolvent Assay (ELISA) using Active Ghrelin ELISA Kit (Cat. No. MM-401, Mitsubishi Kagaku latron Inc.). […]
The results shown in FIG. 7 were used to determine Cmax and Tmax for each liquid preparation. Using the trapezoidal method, the AUC was also calculated for each preparation. […]

[2] = Pharmacokinetics of human ghrelin preparations intravenously, subcutaneously or intramuscularly administered to rats (plasma ghrelin by RIA); assay type: in vivo; conditions: s.c.
Procedure: 7-week old, male SD rats (Charles River Laboratories Japan Inc.) were used. A group of three rats was used for the tests. For intravenous administration, these animals each inserted a polyethylene tube (PE-50, Clay Adams Co., Ltd.) in the femoral artery were used. Preparation No. 2 was administered through the tail vain at a dose of 0.5 mL/kg by using a syringe and a 26 G needle (each available from Terumo Co., Ltd.). Blood samples were collected from the polyethylene tube in the femoral artery before administration and 1, 3, 5, 10, 20, 30, 60, and 90 minutes after administration.
Similarly, these animals inserted a polyethylene tube in the femoral artery were used for subcutaneous administration of Preparation No. 3 in the dorsal skin at a dose of 1 mL/kg using a syringe and a 26 G needle. Blood samples were collected from the polyethylene tube in the femoral artery before administration and 5, 10, 20, and 30 minutes after administration.
To each sample, one-hundredth as much of an EDTA.2Na.2H2O solution and one-fiftieth as much of an AEBSF solution were added immediately after collection of the sample. […]
The plasma samples were then analyzed for the ghrelin levels by radioimmunoassay (RIA) using an anti-ghrelin antibody. […] The supernatant was separated and analyzed for radioactivity by a γ-counter (Packard Instruments Co., Ltd.).
The results shown in FIG. 1 were used to determine the following pharmacokinetic parameters for each injection route: the maximum plasma ghrelin concentration (Cmax) and the time it took before the maximum plasma concentration was reached (T). […] Using the trapezoidal method, the area under the concentration curve (AUC) was also calculated for each injection route. […]
As with the examples of subcutaneous administration, these rats, inserted a polyethylene tube in the femoral artery, were intramuscularly administered Preparations No. 3 and No. 13 in the femoral muscle at a dose of 1 mL/kg, using a syringe and a 26 G needle. The blood samples were collected in the same manner as in Comparative Example 2 and the plasma ghrelin levels were measured by RIA method.

CCCCCCCC(=O)OC[C@H](NC(=O)[C@H](CO)NC(=O)CN)C(=O)N[C@@H](Cc1ccccc1)C(=O)N[C@@H](CC(C)C)C(=O)N[C@@H](CO)C(=O)N1CCC[C@H]1C(=O)N[C@@H](CCC(=O)O)C(=O)N[C@@H](Cc1cnc[nH]1)C(=O)N[C@@H](CCC(N)=O)C(=O)N[C@@H](CCCNC(=N)N)C(=O)N[C@H](C(=O)N[C@@H](CCC(N)=O)C(=O)N[C@@H](CCC(N)=O)C(=O)N[C@@H](CCCNC(=N)N)C(=O)N[C@@H](CCCCN)C(=O)N[C@@H](CCC(=O)O)C(=O)N[C@@H](CO)C(=O)N[C@@H](CCCCN)C(=O)N[C@@H](CCCCN)C(=O)N1CCC[C@H]1C(=O)N1CCC[C@H]1C(=O)N[C@@H](C)C(=O)N[C@@H](CCCCN)C(=O)N[C@@H](CC(C)C)C(=O)N[C@@H](CCC(N)=O)C(=O)N1CCC[C@H]1C(=O)N[C@@H](CCCNC(=N)N)C(=O)O)C(C)C [ghrelin]
bioavailability [1]: ≤ 3%
BA of subcutaneously injected ghrelin [2]: at most 5%
BA of ghrelin ([2]; mixed with sodium acetate buffer (pH 4.0)): 35.3%
BA of ghrelin ([2]; mixed with urea as a solubilizing agent): 3.4%
